# Experimental data published in patent US9150581B2, “Nicotinic receptor compounds” (priority 2011, dated 2015).
# Several values for one entry are separate records, joined by “and”; a condition that tells them apart may be missing. Equal values may be shown once. Where a name gives a salt, the structure may show the parent alone. Read-outs that look alike come from different tables or passages of the source.
# Legend:
# [1] = system: Male Sprague-Dawley rats; type: in vivo, rat; conditions: for Nicotine-like discriminative stimulus effects: compound alone (FIG. 3); for Shift of discriminative stimulus dose-effect curve of small dose of nicotine: small training dose of nicotine
# Method: A drug discrimination assay was performed to measure the relevant effects of nicotine as it influences tobacco use and abuse. In a drug discrimination assay, food restricted rates are trained to make one response (select one of two nose-poke apertures in the test chamber) following administration of a particular drug, and a different response (select the other aperture) following administration of saline. The appropriate response is followed by delivery of food, and there is no cue as to which aperture will result in food delivery other than the presence or absence of the drug. Once trained, the animals respond on the “drug-associated” aperture following drug administration and on the “saline-associated” aperture following saline administration. In addition, administration of drug doses that are smaller than the training dose produce intermediate responses on the drug-associated aperture such that monotonically increasing dose-response curves can be generated in drug discrimination assays.
# Male Sprague-Dawley rats were obtained from Harlan, Inc (Indianapolis, Ind.) and singly housed in polycarbonate cages with water continuously available. All rats weighed approximately 280-290 gms at the start of the experiment. A food-restricted diet of Purina rodent food allowed the animals to grow but maintain motivation to respond to earn food pellets. A 12 hr light-dark cycle turned the lights on at 7:00 am. Standard operant conditioning chambers (ENV-008, Med-Associates, St Albans, Vt.) were used for establishing and evaluating the nicotine discrimination. Each chamber contains two nose-poke devices with apertures containing yellow LED lights on either side of a dipper capable of delivering 50 μl of fluid into a third opening.
# Initially, each rat was trained to insert its nose into one of the apertures and received vanilla-flavored Ensure as a consequence. During discrimination training, rats designated in the small dose group were injected with either saline or 0.32 mg/kg of nicotine. Ten consecutive responses on the appropriate lever (one side following saline administration; the other side following nicotine administration) was followed by presentation of the Ensure for 10 s, followed by a 10 s timeout. Selection of the incorrect lever, and completion of the 10 consecutive responses in this lever results in a 10 s timeout. Criteria for learning the discrimination are 1) responding on the first FR of the session is completed on the injection appropriate aperture; 2) >85% of the total session responses are made on the injection-appropriate aperture.
# Each session was divided into several components of 25 min duration. Following an injection, the first five minutes of each component were black out, and the stimulus lights were illuminated for the remaining 20 min, during which injection-appropriate responses were reinforced.
# One to four components comprised daily sessions Animals were injected with saline or nicotine prior to the start of the session, or following one or more of the […] components. Possible injection conditions were (S=saline, N=nicotine) S—S—S—S; N; S—N; S—S—N; S—S—S—N. Nicotine administration is always given in the final component if it is given at all.
# If a potential antagonist was given, it was administered prior to the session at a time determined by earlier studies to be sufficient for peak effects to be established. The session components then comprised increasing doses of nicotine, each given before consecutive blackout periods. No more than two antagonist sessions were given each week, and once each month a nicotine dose-response curve was determined to assure no changes in sensitivity to nicotine. Full generalization to the nicotine discriminative cue is defined by >85% responding on the drug-associated aperture and completing at least one FR.
# A second, large-nicotine trained group of rats were treated in an identical manner except that their training dose of nicotine is 1.78 mg/kg. […]
# [2] = system: Male Sprague-Dawley rats; conditions: for Blockade of nicotine's hypertensive effects: given prior to 1.78 mg/kg nicotine, RTI-154 10 mg/kg, DHβE 5.6 mg/kg
# Method: Male Sprague-Dawley rats (approximately 300 g) were obtained from Harlan, Inc. (Indianapolis, Ind.) and group-housed upon arrival. Food and water were freely available for all rats at all times. Housing and experimental rooms were maintained on a 12 h light/dark cycle with lights on at 7:00 AM with an average temperature of 21° C.
# Surgical Procedures. To measure changes in heart rate and mean arterial pressure, rats were implanted with telemetric transmitters (TA11PAC40 or TL11M2-C50-PXT, Data Sciences International, Transoma Medical Inc., St. Paul, Minn., USA) under ketamine (90 mg/kg, i.p.) and xylazine (10 mg/kg, i.p.) anesthesia. An incision is made in the skin approximately 1 in to the left or right of the spine and over the left or right thigh to expose the femoral artery. The transmitter is placed into the incision on the dorsal side and into a subcutaneous pocket (made by separating the connective tissue between the skin and muscle) on the side of the abdomen. This positioning prevents the rats from manipulating the incision site and gaining access to the transmitter. The catheter extending from the base of the transmitter is threaded subcutaneously, placed 3 cm into the femoral artery, and secured with suture. Incisions were closed with 5.0 Ethicon nylon monofilament suture. Following surgery, rats were singly-housed and monitored for at least 7 days for signs of recovery (normal eating, drinking, and defecating patterns) prior to experimentation. All rats continued to have free access to food and water at all times.
# Telemetry System. The system consists of battery-operated transmitters surgically implanted (described above), Physiotel® receivers, the DSI Data Exchange Matrix, and the Dataquest A.R.T. system, which collects and stores digital data from the receiver onto a computer (Data Sciences International, Transoma Medical Inc., St. Paul, Minn., USA). Blood pressure and heart rate data were analyzed by the Dataquest A.R.T. Gold Analysis 3.01 software.
# At the start of an experiment, rats' home cages were placed on top of the receivers, and baseline data was collected for at least 1 h to allow heart rate and blood pressure to return to resting levels. All rats were given a saline injection to ensure that they are habituated to the injection and handling procedure on the test day. After heart rate and blood pressure returned to resting levels again, rats were injected with a treatment, consisting either of a single drug dose or a pretreatment drug administered 15 min prior to a test drug. Data was collected for at least 2 h following the last injection. All injections were administered subcutaneously (s.c.) in a volume of 1 ml/kg.
# Each rat was used to evaluate multiple experimental conditions, such that each rat may receive as many as 4-6 different treatments, one per week with at least 6 days between drug exposures. […] Once the rats weigh approximately 450 g (body weight at time of transmitter implant: 300-350 g), the rat is no longer used for experiments, and the transmitter is removed.
# Data were collected throughout baseline, before, and after drug treatments. The analysis program calculated an average heart rate and mean arterial pressure (MAP) every 10 sec. These 10 secepochs are then averaged over 1 min per rat, and data from at least 6 rats were averaged for each treatment group.
# [3] = biological target: α4β2 nAChR (Rattus norvegicus (Rat), UniProt P09483+P12390); assay: Inhibition of [3H]epibatidine binding at the α4β2 nAChR in male rat cerebral cortex; conditions: αβ [3H]Epibatidine (Ki, nM)
# [4] = system: mice; assay: Antagonism of nicotine antinociception, tail-flick; type: in vivo, mouse; conditions: mice pretreated sc 10 min before nicotine 2.5 mg/kg sc
# Method: (§1) In the tail-flick method of D'Amour and Smith, (D'Amour, F. E.; Smith, D. L. J. Pharmacol. Exp. Ther. 1941, 72, 74-79), the tail is exposed to a heat lamp and the amount of time taken for the animal to move (flick) its tail away from the heat is recorded. […] Mice were placed into a 10-cm wide glass cylinder on a hot plate (Thermojust Apparatus) maintained at 55.0° C. Two control latencies at least 10 min apart were determined for each mouse. […] The reaction time was scored when the animal jumped or licked its paws. The mice were tested 5 min after subcutaneous (sc) injections of nicotinic ligands for the dose-response determination. Antinociceptive response was calculated as percentage of maximum possible effect (% MPE, where % MPE=[(test−control)/(maximum latency−control)×100]).
# (§2) Nicotine was administered at a dose of 2.5 mg/kg, sc (an ED84 dose), and mice were tested 5 min later. ED50 and AD50 values with 95% confidence limits were determined.
# [5] = system: mice; assay: Tail-flick test (antinociception); type: in vivo, mouse; conditions: @ 10 mg/kg, sc
# Method: as §1
# [6] = system: mice; assay: Hot-plate test (antinociception); type: in vivo, mouse; conditions: @ 10 mg/kg, sc
# Method: as §1
# [7] = system: mice; assay: Antagonism of nicotine antinociception, hot-plate; type: in vivo, mouse; conditions: for AD50 Hot-Plate: mice pretreated sc 10 min before nicotine 2.5 mg/kg sc; for Antagonism Hot-Plate, % at dose: before nicotine 2.5 mg/kg sc
# Method: as §1, §2
# [8] = system: mice; assay: Hypothermia (rectal temperature); type: in vivo, mouse; conditions: sc; for Hypothermia, % effect at dose: @ 10 mg/kg
# Method: (§3) Interruptions of the photocell beams (two banks of eight cells each) were then recorded for the next 10 min. Data were expressed as number of photocell interruptions. Rectal temperature was measured by a thermistor probe (inserted 24 mm) and digital thermometer (Yellow Springs Instrument Co., Yellow Springs, Ohio). […] The difference in rectal temperature before and after treatment was calculated for each mouse. The ambient temperature of the laboratory varied from 21 to 24° C. from day to day.
# [9] = system: mice; assay: Spontaneous activity (photocell activity cages); type: in vivo, mouse; conditions: sc
# Method: as §3
# [10] = system: Male ICR adult mice; type: in vivo, mouse
# [11] = biological target: α7 nAChR (Rattus norvegicus (Rat), UniProt Q05941); type: binding; conditions: read-out: α7 [125I]iodoMLA (Ki)
# [12] = listed as (±)-154, hydrochloride
# Chain of α4β2 nAChR (P09483 31-630 limits assumed): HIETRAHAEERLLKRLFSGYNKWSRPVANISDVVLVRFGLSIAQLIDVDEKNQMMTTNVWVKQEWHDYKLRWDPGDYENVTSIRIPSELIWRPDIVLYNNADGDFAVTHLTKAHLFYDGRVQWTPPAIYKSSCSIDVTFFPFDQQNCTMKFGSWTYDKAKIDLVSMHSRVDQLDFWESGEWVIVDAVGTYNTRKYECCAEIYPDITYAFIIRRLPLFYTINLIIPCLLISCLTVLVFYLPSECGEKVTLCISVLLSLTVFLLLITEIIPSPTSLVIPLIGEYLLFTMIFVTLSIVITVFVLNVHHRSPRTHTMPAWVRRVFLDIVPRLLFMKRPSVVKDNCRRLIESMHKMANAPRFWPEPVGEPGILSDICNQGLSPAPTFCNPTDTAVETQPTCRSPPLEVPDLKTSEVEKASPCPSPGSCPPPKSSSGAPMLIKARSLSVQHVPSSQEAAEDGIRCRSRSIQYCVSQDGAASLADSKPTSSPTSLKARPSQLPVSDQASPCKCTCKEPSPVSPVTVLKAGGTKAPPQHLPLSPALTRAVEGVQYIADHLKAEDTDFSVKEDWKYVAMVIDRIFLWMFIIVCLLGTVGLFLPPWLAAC
# Chain of α4β2 nAChR (P12390 25-500 limits assumed): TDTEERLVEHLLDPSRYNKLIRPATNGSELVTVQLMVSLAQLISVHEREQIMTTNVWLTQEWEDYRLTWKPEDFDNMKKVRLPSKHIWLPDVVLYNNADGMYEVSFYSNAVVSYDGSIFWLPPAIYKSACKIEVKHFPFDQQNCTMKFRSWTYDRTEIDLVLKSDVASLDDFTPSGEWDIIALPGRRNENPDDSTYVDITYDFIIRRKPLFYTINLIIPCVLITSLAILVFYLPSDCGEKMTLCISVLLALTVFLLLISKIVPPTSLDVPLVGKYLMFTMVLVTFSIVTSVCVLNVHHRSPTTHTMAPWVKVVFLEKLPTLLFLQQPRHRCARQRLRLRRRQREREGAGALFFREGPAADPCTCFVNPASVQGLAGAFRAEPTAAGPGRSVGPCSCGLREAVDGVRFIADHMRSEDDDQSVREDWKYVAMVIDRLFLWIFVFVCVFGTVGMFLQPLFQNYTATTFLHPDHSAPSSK
# Chain of α7 nAChR (Q05941 23-502 limits assumed): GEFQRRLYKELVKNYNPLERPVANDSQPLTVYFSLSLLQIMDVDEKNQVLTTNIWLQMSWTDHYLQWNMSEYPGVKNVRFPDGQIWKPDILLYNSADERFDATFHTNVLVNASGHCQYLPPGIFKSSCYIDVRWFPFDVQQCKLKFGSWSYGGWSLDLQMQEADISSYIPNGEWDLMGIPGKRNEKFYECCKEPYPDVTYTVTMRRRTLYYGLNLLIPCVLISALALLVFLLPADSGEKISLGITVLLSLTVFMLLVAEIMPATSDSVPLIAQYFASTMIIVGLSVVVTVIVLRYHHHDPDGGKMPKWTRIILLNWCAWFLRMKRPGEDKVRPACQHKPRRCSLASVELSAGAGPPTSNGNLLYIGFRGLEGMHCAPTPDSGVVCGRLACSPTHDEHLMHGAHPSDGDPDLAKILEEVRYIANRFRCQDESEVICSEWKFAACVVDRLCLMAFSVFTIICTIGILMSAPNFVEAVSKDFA
molecule,measurement,setting,value
"Clc1ccc(C2CC3CCC2N3)cn1 (single isomer, unassigned; (-)) [(−)-epibatidine, epibatidine]",Nicotine-like discriminative stimulus effects,[1],extremely potent full nicotine-like agonist
same,Effect on blood pressure,"[2]; rats, s.c., compound alone",substantial increases in blood pressure
"CO[C@H]1CC=C2CCN3CCC4=C(CC(=O)OC4)[C@]23C1 [DHβE, dihydro-beta-erythroidine]",Effect on rate-decreasing effects of nicotine,[1],did not antagonize
same,Shift of discriminative stimulus dose-effect curve of small dose of nicotine,[1],parallel rightward shifts
same,Shift of large dose-nicotine dose-response curve,[1]; training dose of nicotine 1.78 mg/kg,much less robust rightward shifts
same,Blockade of nicotine's hypertensive effects,[2]; rats,did not block
same,Cardiovascular effects (heart rate and mean arterial pressure),"[2]; rats, s.c., compound alone",no cardiovascular effects
same,Effect on blood pressure,"[2]; rats, s.c., compound alone",no changes in blood pressure
"CNC1(C)C2CCC(C2)C1(C)C (centres unmarked) [Mecamylamine, mecamylamine]",Effect on rate-decreasing effects of nicotine,[1],parallel rightward shift
same,Shift of discriminative stimulus dose-effect curve of small dose of nicotine,[1],rightward and downward shift
"Fc1ncc(C2CC3CCC2N3)cc1-c1ccc(C(F)(F)F)cc1 (centres unmarked) [RTI-7527-153, 2-(5-(4-Trifluoromethane-phenyl)-6-fluoro-pyridin-3-yl)-7-aza-bicyclo[2.2.1]heptane hydrochloride]",Ki,[3],0.44 ± 0.05 nM
same,AD50 Tail-Flick,[4],38 µg/kg
same,"Tail-Flick, % effect at dose",[5],4% @ 10
same,"Hot-Plate, % effect at dose",[6],6% @ 10
same,AD50 Hot-Plate,[7],6000 µg/kg
same,"Hypothermia, % effect at dose",[8],0% @ 10
same,"Spontaneous Activity, % effect at dose",[9]; @ 10 mg/kg,5% @ 10
"CS(=O)(=O)c1ccc(-c2cc(C3CC4CCC3N4)cnc2F)cc1 (centres unmarked) [RTI-7527-154, 2-(5-(4-Methanesulphonyl-phenyl)-6-fluoro-pyridin-3-yl)-7-aza-bicyclo[2.2.1]heptane hydrochloride]",Effect on rate-decreasing effects of nicotine,[1],"did not, however, alter the potency of nicotine"
same,Effect on rates of responding,[1]; compound alone,did not suppress ongoing rates of responding
same,Nicotine-like discriminative stimulus effects,[1],no efficacy
same,Ki,[3],0.17 nM and 0.08 nM
same,"Tail-Flick, % effect at dose",[5]; [12],6% @ 10 and 5% @ 10
same,Blockade of nicotine's hypertensive effects,[2]; rats,did not block
same,Cardiovascular effects (heart rate and mean arterial pressure),"[2]; rats, s.c., compound alone",no cardiovascular effects
same,"Antagonism Hot-Plate, % at dose",[7]; @ 5000 μg/kg,40% @
same,AD50 Hot-Plate,[7],2600 µg/kg
same,Blockade of development of nicotine-induced CPP,"[10]; mouse, in vivo",totally blocked
same,Preference or aversion induced by compound itself in CPP,"[10]; mouse, in vivo",did not induce significant preference or aversion
same,"Hypothermia, % effect at dose",[8]; [12],1% @ 10 and 1.2% @ 10
same,"Spontaneous Activity, % effect at dose",[9]; @ 5 mg/kg,0% @ 5;
"N#Cc1ccc(-c2cc(C3CC4CCC3N4)cnc2F)cc1 (centres unmarked) [RTI-7527-155, 2-(5-(4-Cyano-phenyl)-6-fluoro-pyridin-3-yl)-7-aza-bicyclo[2.2.1]heptane hydrochloride]",Ki,[3],0.19 ± 0.012 nM
same,AD50 Tail-Flick,[4],6 µg/kg
same,"Tail-Flick, % effect at dose",[5],4% @ 10
same,"Hot-Plate, % effect at dose",[6],18% @ 10
same,"Antagonism Hot-Plate, % at dose",[7]; @ 10000 μg/kg,24% @
same,"Hypothermia, % effect at dose",[8],0% @ 10
same,"Spontaneous Activity, % effect at dose",[9]; @ 10 mg/kg,0% @ 10
CN1CCCC1c1cccnc1 (centres unmarked) [nicotine],Effect on blood pressure,"[2]; rat, in vivo, sc",substantial increases in blood pressure
"c1cnc2cc3c(cc2n1)[C@@H]1CNC[C@H]3C1 [varenicline, reference compound]",Nicotine-like discriminative stimulus effects,[1],nearly full nicotine-like discriminative stimulus effects
same,AD50 Tail-Flick,[4],0.2 µg/kg
same,"Tail-Flick, % effect at dose",[5],11% @ 10
same,Effect on blood pressure,"[2]; rats, s.c., compound alone",substantial increases in blood pressure
same,"Hot-Plate, % effect at dose",[6],10% @ 10
same,AD50 Hot-Plate,[7],470 µg/kg
same,Preference or aversion induced by compound itself in CPP,[10]; compound alone at the doses used,without a significant effect on its own
same,Blockade of nicotine CPP,"[10]; mouse, s.c. 10 min prior to nicotine 0.5 mg/kg, several doses",dose-dependently blocked nicotine CPP
same,ED50,[8]; Mus musculus,2.8 mg/kg
same,Ki,[11],32.5 nM
same,ED50,[9]; Mus musculus,2.1 mg/kg
α-conotoxin AUIB,Blockade of development of nicotine reward in the CPP test,"[10]; mouse, in vivo",blocked the development of nicotine reward
